Data set [1] deals with LNCaP monolayer cell culture. Particulars: cited from earlier work.
Data set [2] concerns LNCaP spheroids. Put plainly: TUNEL staining of spheroid sections (apoptosis). Type of data set: cell-based, human. Particulars: for TUNEL staining (apoptosis): SAHA alone.
Description: At 0, 6, 24, or 48 h post treatment spheroids were washed in cold media, fixed for 4 hr in 4% paraformaldehyde, and placed in paraffin blocks. Serial 5-μm sections of the blocks were cut using a microtome and mounted on poly-L-lysine-coated slides that were fixed in ice cold acetone for 10 min.
A final, 2 min incubation in Hematoxylin was used to counterstain sections. Untreated spheroids were used as controls; positive controls were created using DNase I (Boehringer, Ingelheim, Germany). Images were captured digitally from an inverted phase-contrast microscope using a coupled Pixera Professional Camera and associated software (Pixera Visual Communication Suite, Pixera, Los Gatos, Calif.). Images were scored for positive staining as percentage of reactive cells within the spheroid section.
A two-tailed T test was used to test for significant differences in the percentage of positively stained cells.
Data set [3] deals with LNCaP spheroids. Put plainly: Outgrowth assay (colony formation) of spheroids that did not regrow. Type of data set: cell-based, human. Particulars: 5 μM SAHA 96 h in combination with 6 Gy external beam radiation.
For data set [4], the system named is prostate tumor xenografts. As to conditions: nude mice (Butler et al. 2000); cited from earlier work.
Data set [5] relates to LNCaP spheroids. Put plainly: LNCaP spheroid growth (volume monitoring). Type of data set: cell-based, human. As to conditions: for growth delay: 5-day incubation, vs untreated. The procedure: Cell concentrations were determined by counting trypsinized cells with a hemocytometer. […] The entire content of the above references is hereby incorporated by reference.
The medium was inoculated at 6.7×10^4 cells/mL from trypsinized stock cultures. The resulting suspension was used to seed 100 mm plates with approximately 10^6 cells. After an incubation of 5-7 days, spheroids of ˜200 μm diameter were selected under an inverted phase-contrast microscope (Axiophot 2; Carl Zeiss Ltd., Gottingen, Germany) fitted with an ocular scale using an Eppendorf pipette.
TREATMENT PROTOCOLS: After each treatment, spheroids were washed three times by suspension in fresh medium. […] A minimum of 12 spheroids was used for each condition in duplicate experiments.
The antibody was obtained from the laboratory of David Scheinberg, M. D., Ph.D., Memorial Sloan-Kettering Cancer Center.
Following complete treatment, washed spheroids were placed in separate agar-prepared wells of a 24 well plate. Untreated spheroids were washed and separated immediately after initial selection. The medium in each well was replaced, and volume measurements preformed, twice per week. Using the inverted microscope and ocular scale described previously, the major and minor diameter, dmax and dmin respectively, were determined and spheroid volume calculated as V=(⅙)·π·dmax·dmin^2. Volume monitoring was stopped once a spheroid had exceeded the field of view of the microscope or had fragmented into individual cells or multiple smaller cell clusters.
We describe this relationship through the inequality:
avg(V|S=5M, R=6 Gy)<C+{avg(V|S=5 μM, R=0)−C}+{avg(V|S=0, R=6 Gy)−C}
To test for synergy, we computed 2000 bootstrap replicates of the average log AUC, for each of the four groups, and computed the proportion of replicates where the inequality was not obtained. This proportion is termed the achieved significance level (p-value).

Setting [6] is: continuous exposure at 5 μM SAHA.

`O=C(CCCCCCC(=O)Nc1ccccc1)NO` [SAHA, Suberoylanilide hydroxamic acid]: the monolayer cell growth entry in data set [1] (2.5 μM SAHA, over a 4-day period (Butler et al. 2000)) is on record as “complete growth suppression with minimal to no cell kill”. Moreover, the monolayer cell kill result in data set [1] (5 μM SAHA (Butler et al. 2000)) is reported as “progressive cell kill starting after 48 hours”. For the same compound, the “TUNEL staining (apoptosis)” value in data set [2] (48 h after the end of SAHA incubation (5 μM, 96 h)) is listed as “apoptotic cells are found throughout the spheroid”; in data set [2] (immediately after the end of a 96 h SAHA incubation (5 μM)) it was “majority of cells on the spheroid surface have undergone apoptosis”. Besides, the “TUNEL staining pattern compared with SAHA alone” value in data set [2] (SAHA (5 μM, 96 h) and 6 Gy radiation) is “almost identical pattern”. Further, in data set [2] (TUNEL staining and spheroid morphology), the “mode of cell death following exposure to SAHA” value was “predominantly by apoptosis”. Moreover, the “spheroids forming colonies in the outgrowth assay” value in data set [3] is given as “none of the 12 spheroids forming colonies”. Also, the toxicity result in data set [4] is given as “minimal to no detectable toxicity”. Further, the growth delay in data set [5] (1.25 μM SAHA) was determined as 4 days; in data set [5] (2.5 μM SAHA) it was 7 days; in data set [5] (5 μM SAHA) it was 13 days. Besides, the spheroid growth result in data set [5] (1.25 μM SAHA, 120-hour and continuous exposure) is listed as “delayed but not arrested”; in data set [5] (2.5 μM SAHA, over the 120 h incubation period), “complete growth arrest”; in data set [5] (5 μM SAHA 96 h in combination with 6 Gy external beam radiation after 48 h), “complete growth inhibition”; in data set [5] (24 hour exposure to 100 nCi/mL Ac225-HuM195 followed by 96 h incubation with 5 μM SAHA), “complete growth inhibition”; in data set [5] (continuous exposure at 2.5 μM SAHA), “complete growth suppression”. The “statistical analysis of synergy (log AUC of tumor volume curve, bootstrap)” value in data set [5] (5 μM SAHA 96 h + 6 Gy vs additive model, p<0.01) is “synergistic inhibition of tumor growth”. In addition, the “delay in spheroid growth” value in data set [5] (5 μM SAHA 120 h in combination with 3 Gy external beam radiation) worked out at 7 days. In addition, in data set [5] (5 μM SAHA, continuous incubation), the “time of incubation until complete spheroid disruption” value fell in the range of 13 to 16 days. Also, the median volume reduction in data set [5] (5 μM SAHA, five days following a 120 hour incubation) was determined as 2.4 fold. Further, the “initial delay of spheroid growth” value in data set [5] (96 h exposure to 5 μM SAHA alone (Example 5)) came out at 10 days. Besides, the “spheroid growth after the initial delay” value in data set [5] (96 h exposure to 5 μM SAHA alone, after a period of 30 days (Example 5)) was “spheroid growth to almost the levels of control untreated spheroid volume”. For the same compound, the “day by which the majority of spheroids disaggregated” value in data set [5] (setting [6]) is no more than 20 days. Besides, the spheroid volume result in data set [5] (setting [6]) was “rapid loss in spheroid volume”.
With “Ac225-HuM195: recombinant humanized Anti-CD33 monoclonal antibody which has been radiolabelled with actinium225”, the spheroid growth entry in data set [5] (100 nCi/mL Ac225-HuM195 for 24 hours alone) is recorded as “did not cause growth inhibition”.

Values taken from US20090054720A1, “Use of histone deacetylase inhibitors in combination with radiation for the treatment of cancer” (priority 2002, published 2009).
